The values below come from patent US20060247258A1, “Use of levocetirizine for the treatment of persistent allergic rhinitis” (UCB Farchim S.A., priority 2002, published 2006).

Molecules are shown by their SMILES. Counter-ions that a name gives are not always drawn.

Holding throughout (format): in vivo, adult patients
Data set [1] concerns persistent allergic rhinitis. Put plainly: Clinical study in persistent allergic rhinitis: safety of long-term treatment. The following applies: 5 mg once per day; 6 month treatment. From the text: The aim of the study relative to the clinical effect of levocetirizine dihydrochloride was to establish on the intention to treat (ITT population) whether a 6 month levocetirizine dihydrochloride treatment can improve the quality of life and clinical symptoms from adult patients suffering from persistent allergic rhinitis, when compared to placebo. For clinical symptoms, it was considered that a 1 point score reduction is clinically relevant. For health-related quality of life, it was considered that a 0.36 point score reduction is relevant. Secondary parameters of efficacy included different durations of treatment, different symptoms, different quality of life questionnaires, the incidence of co-morbidities suspected to be linked to allergic rhinitis and pharmaco-economic variables. The safety of this long-term treatment with levocetirizine dihydrochloride has also been evaluated.
At each of the eight visits, diary book entries (T5SS, RQLQ, SF-36, indirect cost pharmaco-economic parameters, concomitant medication, outpatient consultations and adverse events) were verified and transferred into the Clinical Record Form and direct cost pharmaco-economic parameters were recorded. Patients underwent a physical examination, including the measurement of vital signs. […]
Adverse events were recorded by the patients on diary cards and discussed with the investigator at each visit. […]

Data set [2] deals with persistent allergic rhinitis. The data set can be described thus: Clinical study in persistent allergic rhinitis: Total 5 Symptoms Score (T5SS). The text has this:
(§1) For clinical symptoms, it was considered that a 1 point score reduction is clinically relevant. For health-related quality of life, it was considered that a 0.36 point score reduction is relevant. Secondary parameters of efficacy included different durations of treatment, different symptoms, different quality of life questionnaires, the incidence of co-morbidities suspected to be linked to allergic rhinitis and pharmaco-economic variables.
(§2) The target population of this example consisted of adults aged more than 18 years suffering from persistent allergic rhinitis [WHO Initiative on Allergic Rhinitis and its Impact on Asthma (ARIA), 2000, pages S147-S149]. To be enrolled, the subjects needed to have sufficient rhinitis symptoms during the selection period. Excluded were patients with ENT or eye infection during the 2-weeks preceding initial visit.
(§3) The study was a prospective, randomized, double blind, parallel group, and placebo-controlled study with levocetirizine dihydrochloride.
(§4) The severity of clinical symptoms was rated by the T5SS (sneezing, rhinorrhea, nasal pruritus, ocular pruritus and nasal congestion) evaluated each by a score from 0 to 3. The impact on health related quality of life was measured using the Rhinoconjunctivitis Quality of Life Questionnaire (RQLQ) (E. JUNIPER and G. H. GUYAIT, Development and testing of a new measure of health status for clinical trials in rhinoconjunctivitis, Clinical and Experimental Allergy 1991; 21:77-83; E. JUNIPER, Measuring Health Related Quality of Life in rhinitis, J. Allergy Clin. Immunol. 1997; 99:S742-9).
(§5) Study treatment lasted for 6 months. After the treatment period, patients entered a 1-week follow-up period.
(§6) The primary end-point for efficacy was a decrease of the T5SS over the first 4 weeks of at least 1 unit of score. The primary end-point for quality of life was a decrease of RQLQ after 4 weeks of at least 0.36 unit of the total score.
(§7) Secondary parameters of efficacy included the mean T5SS, the RQLQ and the SF-36 questionnaire at the different time points of the study, and the incidence and the duration of rescue medication over 6 months.
(§8) Oral tablets of levocetirizine dihydrochloride (5 mg) and matching placebo, similar in appearance, shape and taste were used. The recommended study dosage was 1 tablet per day.

Data set [3] deals with persistent allergic rhinitis. The data set can be described thus: Clinical study in persistent allergic rhinitis: Rhinoconjunctivitis Quality of Life Questionnaire (RQLQ).
Source text: as §1, §2, §3, §4, §5, §6, §7, §8
Sample size was based on 40% relative improvement over placebo in the RQLQ questionnaire, assuming an improvement from baseline for placebo of 0.9. For this questionnaire this corresponds to a difference of 0.36 vs. placebo.

The subject of data set [4] is persistent allergic rhinitis. The data set can be described thus: Clinical study in persistent allergic rhinitis: individual rhinitis symptom scores (nasal congestion, sneezing, rhinorrhea, nasal pruritus, ocular pruritus). The following applies: for Effect on nasal congestion / nasal obstruction (in words): long term treatment.
Source text: as §1, §2, §3, §4, §5
Exploratory parameters of efficacy included the mean of each individual rhinitis score, each RQLQ domain and each scale of the SF-36 questionnaire at the different time points of the study, the Global Evaluation Scale after 4 weeks and 6 months, the incidence of co-morbidities suspected to be linked to allergic rhinitis and the pharmaco-economic direct and indirect costs over 6 months.
as §8

The mark [5] stands for this setting: 5 mg once per day, 6 month treatment.
[6] abbreviates: 5 mg oral tablet once per day, over the first four weeks of treatment, ITT population.
Where [7] appears, read: 5 mg oral tablet once per day, after first 4 weeks of treatment, ITT population.
Where [8] appears, read: 5 mg, 3 months, evaluated over the 24 hours, ITT population.
Where [9] appears, read: 5 mg, 4.5 months, evaluated over the 24 hours, ITT population.
Where [10] appears, read: 5 mg, 6 months, evaluated over the 24 hours, ITT population.
Setting [11] is: 5 mg, First 4 weeks, evaluated over the 24 hours, ITT population.
Setting [12] is: 5 mg, Week 1, evaluated over the 24 hours, ITT population.

On to `O=C(O)COCCN1CCN([C@H](c2ccccc2)c2ccc(Cl)cc2)CC1` [Lctz, levocetirizine dihydrochloride], for which the “Safety of long-term administration” value in data set [1] was “did not involve particular safety concerns”. Also, in data set [2] (setting [5]), the “Duration of effect on rhinitis” value is listed as “has an effect on rhinitis up to 6 months”. The “Tachyphylaxis (need to adjust the dosing schedule)” value in data set [2] (5 mg once per day, during 6 months) was “lack of tachyphylaxis”. For the same compound, the “Mean T5SS, Adjusted mean (adjusted for baseline score and country)” value in data set [2] (setting [6]) was 5.43. The “Mean T5SS, Mean (SD)” value in data set [2] (setting [6]) is reported as 5.53 (2.52). The “Mean T5SS, Diff. vs. placebo (95% CI), placebo minus Lctz 5 mg” value in data set [2] (5 mg oral tablet once per day, over the first four weeks of treatment, ITT population, dihydrochloride) is recorded as 1.14. In addition, in data set [3] (setting [5]), the “Duration of effect on quality of life” value is “has an effect on quality of life up to 6 months”. Moreover, the “Change from baseline of the RQLQ Overall Score, Adjusted Mean (adjusted for baseline score and country)” value in data set [3] (setting [7]) is −1.49. In addition, the “Change from baseline of the RQLQ Overall Score, Mean” value in data set [3] (setting [7]) is −1.50. The “Change from baseline of the RQLQ Overall Score, Diff. vs. placebo (95% CI), placebo minus Lctz 5 mg” value in data set [3] (5 mg oral tablet once per day, after first 4 weeks of treatment, ITT population, dihydrochloride) is 0.48. In addition, the “Improvement of sneezing, rhinorrhea, nasal pruritus and ocular pruritus” value in data set [4] (5 mg once per day, at all time points, vs. placebo) is “statistically significant improvement”. The “Effect on nasal congestion / nasal obstruction (in words)” value in data set [4] (5 mg once per day, listed as Levocetirizine, dihydrochloride) is “active on nasal obstruction after a long term treatment (equal or more than 3 months)”; in data set [4] (5 mg once per day, listed as levocetirizine dihydrochloride, dihydrochloride), “has an effect on nasal congestion after 3 months”. Moreover, the “Nasal congestion symptoms, Adjusted Mean” value in data set [4] (setting [8]) is 1.16; in data set [4] (setting [9]) it was 1.11; in data set [4] (setting [10]), 1.08; in data set [4] (setting [11]), 1.40; in data set [4] (setting [12]) it was 1.58. Moreover, the “Nasal congestion symptoms, Mean (SD)” value in data set [4] (setting [8]) is recorded as 1.22 (0.78); in data set [4] (setting [9]), 1.17 (0.77); in data set [4] (setting [10]), 1.13 (0.76); in data set [4] (setting [11]) it was 1.44 (0.78); in data set [4] (setting [12]) it was 1.61 (0.83). In addition, the “Nasal congestion symptoms, Diff. vs. (95% CI), placebo minus Lctz” value in data set [4] (5 mg, 3 months, evaluated over the 24 hours, ITT population, dihydrochloride) was 0.15.
